Values joined by “and” are separate entries in the source; they are usually repeats but may differ in a detail not shown here. Identical values can stand only once. Toxic doses and inconclusive results are not listed. Rule as the data show it: active = T/C of 150% or more; inactive = T/C below 125%.
Tested on: L1210 leukemia ip in BDF1 mice, survival T/C
Assay: NCI In Vivo Anticancer Drug Screen. Data for tumor model L1210 Leukemia (intraperitoneal) in B6D2F1 (BDF1) mice
Conditions: higher = longer survival
Method in brief: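 Transplanted-tumor mice were given test agent; controls received vehicle only. Survival readings from the two groups were divided (treated over control).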

[1] = endpoint: mean survival time, dose: 100.0 mg/kg/injection, schedule: Q01DX009 (ip), vehicle: Klucel (hydroxypropylcellulose) (HPC)
[2] = endpoint: mean survival time, dose: 100.0 mg/kg/injection, schedule: Q04DX003 (ip), vehicle: Klucel (hydroxypropylcellulose) (HPC)
[3] = endpoint: mean survival time, dose: 200.0 mg/kg/injection, schedule: Q01DX009 (ip), vehicle: Klucel (hydroxypropylcellulose) (HPC)
[4] = endpoint: mean survival time, dose: 200.0 mg/kg/injection, schedule: Q04DX003 (ip), vehicle: Klucel (hydroxypropylcellulose) (HPC)
[5] = endpoint: mean survival time, dose: 400.0 mg/kg/injection, schedule: Q01DX009 (ip), vehicle: Klucel (hydroxypropylcellulose) (HPC)
[6] = endpoint: mean survival time, dose: 400.0 mg/kg/injection, schedule: Q04DX003 (ip), vehicle: Klucel (hydroxypropylcellulose) (HPC)
[7] = endpoint: mean survival time, dose: 25.0 mg/kg/injection, schedule: Q01DX009 (ip), vehicle: Klucel (hydroxypropylcellulose) (HPC)
[8] = endpoint: mean survival time, dose: 50.0 mg/kg/injection, schedule: Q01DX009 (ip), vehicle: Klucel (hydroxypropylcellulose) (HPC)
[9] = endpoint: mean survival time, dose: 100.0 mg/kg/injection, schedule: Q01DX001 (ip), vehicle: carboxymethylcellulose (CMC)
[10] = endpoint: mean survival time, dose: 200.0 mg/kg/injection, schedule: Q01DX001 (ip), vehicle: carboxymethylcellulose (CMC)
[11] = endpoint: mean survival time, dose: 400.0 mg/kg/injection, schedule: Q01DX001 (ip), vehicle: carboxymethylcellulose (CMC)

Measured: T/C

CC(C)(C)c1cc(O)c(C(C)(C)C)cc1O
inactive: endpoint: mean survival time, dose: 50.0 mg/kg/injection, schedule: Q01DX001 (ip), vehicle: saline 90 % of control | endpoint: mean survival time, dose: 100.0 mg/kg/injection, schedule: Q01DX001 (ip), vehicle: saline 96 % of control | endpoint: mean survival time, dose: 100.0 mg/kg/injection, schedule: Q04DX002 (ip), vehicle: gum acacia 106 % of control | endpoint: mean survival time, dose: 200.0 mg/kg/injection, schedule: Q01DX001 (ip), vehicle: saline 94 % of control | endpoint: mean survival time, dose: 200.0 mg/kg/injection, schedule: Q04DX002 (ip), vehicle: gum acacia 106 % of control | endpoint: mean survival time, dose: 400.0 mg/kg/injection, schedule: Q01DX001 (ip), vehicle: saline 98 % of control | endpoint: mean survival time, dose: 400.0 mg/kg/injection, schedule: Q04DX002 (ip), vehicle: gum acacia 108 % of control

CC1(C)COC(c2ccccc2Br)=N1
inactive: [1] 107 % of control | [2] 104 % of control and 105 % of control | [3] 104 % of control | [4] 97 % of control and 105 % of control | [5] 93 % of control | [6] 93 % of control and 100 % of control

CN(C)c1ccc(N=Cc2cc[n+](C)cc2)cc1
inactive: endpoint: mean survival time, dose: 25.0 mg/kg/injection, schedule: Q01DX009 (ip), vehicle: saline 92 % of control | endpoint: mean survival time, dose: 50.0 mg/kg/injection, schedule: Q01DX009 (ip), vehicle: saline 100 % of control | endpoint: mean survival time, dose: 100.0 mg/kg/injection, schedule: Q04DX003 (ip), vehicle: saline 87 % of control

O=C(NNc1ccccc1)C(O)C(O)C(O)C(O)CO (stereo unspecified)
inactive: endpoint: mean survival time, dose: 100.0 mg/kg/injection, schedule: Q01DX009 (ip), vehicle: saline with Tween-80 100 % of control | endpoint: mean survival time, dose: 200.0 mg/kg/injection, schedule: Q01DX009 (ip), vehicle: saline with Tween-80 96 % of control | endpoint: mean survival time, dose: 400.0 mg/kg/injection, schedule: Q01DX009 (ip), vehicle: saline with Tween-80 104 % of control

CCCC(F)C(Br)C(=O)O (stereo unspecified)
inactive: endpoint: mean survival time, dose: 100.0 mg/kg/injection, schedule: Q04DX002 (ip), vehicle: other 90 % of control | endpoint: mean survival time, dose: 200.0 mg/kg/injection, schedule: Q04DX002 (ip), vehicle: other 90 % of control | endpoint: mean survival time, dose: 400.0 mg/kg/injection, schedule: Q04DX002 (ip), vehicle: other 90 % of control

C=CCS(=O)(=O)c1ccc(C)cc1
inactive: [2] 102 % of control | [4] 100 % of control | [6] 100 % of control

Cc1cc2c(cc1C)N(C(=O)CN1CCOCC1)CC(=O)N2
inactive: endpoint: mean survival time, dose: 50.0 mg/kg/injection, schedule: Q01DX009 (ip), vehicle: acetone 95 % of control | endpoint: mean survival time, dose: 100.0 mg/kg/injection, schedule: Q01DX009 (ip), vehicle: acetone 88 % of control | endpoint: mean survival time, dose: 100.0 mg/kg/injection, schedule: Q04DX003 (ip), vehicle: acetone 98 % of control | endpoint: mean survival time, dose: 200.0 mg/kg/injection, schedule: Q01DX009 (ip), vehicle: acetone 95 % of control | endpoint: mean survival time, dose: 200.0 mg/kg/injection, schedule: Q04DX003 (ip), vehicle: acetone 97 % of control | endpoint: mean survival time, dose: 400.0 mg/kg/injection, schedule: Q04DX003 (ip), vehicle: acetone 92 % of control

ClC(Cl)(Cl)C(c1cccs1)c1cccs1
inactive: [1] 94 % of control | endpoint: mean survival time, dose: 100.0 mg/kg/injection, schedule: Q04DX002 (ip), vehicle: Klucel (hydroxypropylcellulose) (HPC) 93 % of control | [3] 94 % of control | endpoint: mean survival time, dose: 200.0 mg/kg/injection, schedule: Q04DX002 (ip), vehicle: Klucel (hydroxypropylcellulose) (HPC) 96 % of control | [5] 94 % of control | endpoint: mean survival time, dose: 400.0 mg/kg/injection, schedule: Q04DX002 (ip), vehicle: Klucel (hydroxypropylcellulose) (HPC) 96 % of control

CCCCCCCCCC(=O)N/N=C/c1ccccc1Cl
inactive: endpoint: mean survival time, dose: 12.5 mg/kg/injection, schedule: Q01DX009 (ip), vehicle: Klucel (hydroxypropylcellulose) (HPC) 112 % of control | [7] 113 % of control | [8] 104 % of control

Cn1nc(-c2ccccc2)[n+](C)n1
inactive: endpoint: mean survival time, dose: 75.0 mg/kg/injection, schedule: Q01DX001 (ip), vehicle: saline 104 % of control | endpoint: mean survival time, dose: 150.0 mg/kg/injection, schedule: Q01DX001 (ip), vehicle: saline 100 % of control | endpoint: mean survival time, dose: 300.0 mg/kg/injection, schedule: Q01DX001 (ip), vehicle: saline 100 % of control

CC1COCC(C)N1C1=C(Cl)C(=O)c2ccccc2C1=O (stereo unspecified)
inactive: endpoint: mean survival time, dose: 12.5 mg/kg/injection, schedule: Q01DX001 (ip), vehicle: carboxymethylcellulose (CMC) 98 % of control | endpoint: mean survival time, dose: 25.0 mg/kg/injection, schedule: Q01DX001 (ip), vehicle: carboxymethylcellulose (CMC) 98 % of control

N#Cc1ccc2c(c1)Cc1cc([N+](=O)[O-])ccc1-2
inactive: [9] 100 % of control | [10] 105 % of control | [11] 91 % of control

CC(C)(C)OOC(=O)c1ccccc1
inactive: [7] 96 % of control | endpoint: mean survival time, dose: 50.0 mg/kg/injection, schedule: Q01DX001 (ip), vehicle: other 90 % of control | [8] 97 % of control | endpoint: mean survival time, dose: 75.0 mg/kg/injection, schedule: Q01DX009 (ip), vehicle: Klucel (hydroxypropylcellulose) (HPC) 97 % of control and 101 % of control | endpoint: mean survival time, dose: 100.0 mg/kg/injection, schedule: Q01DX001 (ip), vehicle: other 100 % of control | [2] 107 % of control | endpoint: mean survival time, dose: 200.0 mg/kg/injection, schedule: Q01DX001 (ip), vehicle: other 102 % of control | [4] 115 % of control | endpoint: mean survival time, dose: 400.0 mg/kg/injection, schedule: Q01DX001 (ip), vehicle: other 94 % of control | [6] 96 % of control

Ic1ccc(N=Cc2cccs2)cc1
inactive: endpoint: mean survival time, dose: 50.0 mg/kg/injection, schedule: Q01DX001 (ip), vehicle: carboxymethylcellulose (CMC) 100 % of control | [9] 94 % of control | [10] 92 % of control | [11] 94 % of control

COC(=O)c1ccccc1N=NN(C)C
inactive: [9] 102 % of control | [10] 102 % of control | endpoint: median survival time, dose: 65.0 mg/kg/injection, schedule: Q01DX001 (ip), vehicle: steriod suspending solution 110 % of control | endpoint: median survival time, dose: 108.0 mg/kg/injection, schedule: Q01DX001 (ip), vehicle: steriod suspending solution 105 % of control | endpoint: median survival time, dose: 180.0 mg/kg/injection, schedule: Q01DX001 (ip), vehicle: steriod suspending solution 120 % of control | endpoint: median survival time, dose: 300.0 mg/kg/injection, schedule: Q01DX001 (ip), vehicle: steriod suspending solution 105 % of control

O=C(O)CN(Cc1ccccc1)Sc1ccccc1[N+](=O)[O-]
inactive: endpoint: mean survival time, dose: 50.0 mg/kg/injection, schedule: Q01DX009 (ip), vehicle: other 98 % of control | endpoint: mean survival time, dose: 100.0 mg/kg/injection, schedule: Q01DX009 (ip), vehicle: other 91 % of control | endpoint: mean survival time, dose: 100.0 mg/kg/injection, schedule: Q04DX003 (ip), vehicle: other 98 % of control | endpoint: mean survival time, dose: 200.0 mg/kg/injection, schedule: Q04DX003 (ip), vehicle: other 96 % of control

CN(N)C(=O)Nc1ccccc1Cl
inactive: endpoint: mean survival time, dose: 75.0 mg/kg/injection, schedule: Q01DX001 (ip), vehicle: carboxymethylcellulose (CMC) 100 % of control | endpoint: mean survival time, dose: 150.0 mg/kg/injection, schedule: Q01DX001 (ip), vehicle: carboxymethylcellulose (CMC) 107 % of control

COc1cccc(/C=C/c2nc3ccccc3nc2/C=C/c2cccc(OC)c2OC)c1OC
inactive: [8] 95 % of control | [1] 92 % of control | [3] 101 % of control

COC(=O)C1=C(C(=O)OC)C2CC1C1OC21 (stereo unspecified)
inactive: endpoint: mean survival time, dose: 100.0 mg/kg/injection, schedule: Q01DX009 (ip), vehicle: saline 96 % of control | endpoint: mean survival time, dose: 200.0 mg/kg/injection, schedule: Q01DX009 (ip), vehicle: saline 98 % of control

CC(=O)C(=Cc1c[nH]c2ccccc12)C(C)=O
inactive: endpoint: mean survival time, dose: 50.0 mg/kg/injection, schedule: Q01DX009 (ip), vehicle: water 98 % of control | endpoint: mean survival time, dose: 100.0 mg/kg/injection, schedule: Q01DX009 (ip), vehicle: water 112 % of control | endpoint: mean survival time, dose: 100.0 mg/kg/injection, schedule: Q04DX003 (ip), vehicle: water 106 % of control | endpoint: mean survival time, dose: 200.0 mg/kg/injection, schedule: Q01DX009 (ip), vehicle: water 98 % of control | endpoint: mean survival time, dose: 200.0 mg/kg/injection, schedule: Q04DX003 (ip), vehicle: water 103 % of control | endpoint: mean survival time, dose: 400.0 mg/kg/injection, schedule: Q01DX009 (ip), vehicle: water 95 % of control | endpoint: mean survival time, dose: 400.0 mg/kg/injection, schedule: Q04DX003 (ip), vehicle: water 104 % of control

— PubChem BioAssay AID248 (DTP/NCI, 2004)
